Drawing on PubChem BioAssay AID212 (DTP/NCI, 2004), this text covers T/C for 13 compounds.

Several values for one entry are separate records, joined by “and”; a condition that tells them apart may be missing. Identical values can stand only once. Records with an inconclusive call do not appear.

The test relates to BDF1 mice, colon carcinoma 38 sc, T/C %. The test can be described thus: NCI In Vivo Anticancer Drug Screen. Data for tumor model Colon Carcinoma 38 (subcutaneous) in B6D2F1 (BDF1) mice. The settings on record: endpoint: median tumor weight (est.), higher = larger tumour. The procedure, abridged:
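Ratio of survival or tumor size, compound-treated animals relative to vehicle controls, in tumor-bearing mice.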

Setting [1] is: dose: 12.5 mg/kg/injection, schedule: Q07DX002 (ip), vehicle: Klucel (hydroxypropylcellulose) (HPC).
[2] abbreviates: dose: 12.5 mg/kg/injection, schedule: Q07DX003 (ip), vehicle: saline.
The mark [3] stands for this setting: dose: 25.0 mg/kg/injection, schedule: Q07DX002 (ip), vehicle: Klucel (hydroxypropylcellulose) (HPC).
Setting [4] is: dose: 25.0 mg/kg/injection, schedule: Q07DX003 (ip), vehicle: saline.
The mark [5] stands for this setting: dose: 12.5 mg/kg/injection, schedule: Q07DX002 (ip), vehicle: saline.
[6] abbreviates: dose: 50.0 mg/kg/injection, schedule: Q07DX002 (ip), vehicle: saline.
The mark [7] stands for this setting: dose: 100.0 mg/kg/injection, schedule: Q07DX002 (ip), vehicle: saline.
The mark [8] stands for this setting: dose: 50.0 mg/kg/injection, schedule: Q07DX002 (ip), vehicle: Klucel (hydroxypropylcellulose) (HPC).

Turning to `Cc1ncc(CNC(=O)N(CCCl)N=O)c(N)n1`, the T/C (dose: 6.25 mg/kg/injection, schedule: Q07DX003 (ip), vehicle: saline) is 82 % of control; the T/C under setting [1] is 73 % of control; the T/C under setting [2] is 88 % of control; the T/C under setting [3] was 32 % of control; the T/C under setting [4] is 31 % of control.
`COc1ccc(OC)c(Cc2cnc3nc(N)nc(N)c3c2C)c1`: the T/C was 62 % of control (dose: 12.5 mg/kg/injection, schedule: Q07DX002 (ip), vehicle: water); 96 % of control (dose: 25.0 mg/kg/injection, schedule: Q07DX002 (ip), vehicle: water); 67 % of control and 82 % of control (dose: 50.0 mg/kg/injection, schedule: Q07DX002 (ip), vehicle: water); 93 % of control and 100 % of control (dose: 100.0 mg/kg/injection, schedule: Q07DX002 (ip), vehicle: water); 32 % of control (dose: 200.0 mg/kg/injection, schedule: Q07DX002 (ip), vehicle: water).
Turning to `COc1cc([C@@H]2c3cc4c(cc3[C@@H](OC3OC5COC(C)OC5C(O)C3O)[C@H]3COC(=O)[C@H]23)OCO4)cc(OC)c1O` (some centres not stated), the T/C runs as follows: (dose: 16.0 mg/kg/injection, schedule: Q07DX003 (ip), vehicle: clinical formulation) 68 % of control; (dose: 32.0 mg/kg/injection, schedule: Q07DX003 (ip), vehicle: clinical formulation) 83 % of control; (dose: 64.0 mg/kg/injection, schedule: Q07DX003 (ip), vehicle: clinical formulation) 27 % of control.
`O=C[C@@H](CO)O[C@H](C=O)c1c[nH]c(=O)[nH]c1=O`: the T/C was 121 % of control under setting [5]; 83 % of control under setting [6]; 121 % of control under setting [7]; 57 % of control (dose: 200.0 mg/kg/injection, schedule: Q07DX002 (ip), vehicle: saline).
Turning to `CCN(CC)CCCC(C)Nc1c2ccc(Cl)cc2nc2ccc(OC)cc12` (configuration not stated), the T/C (dose: 16.0 mg/kg/injection, schedule: Q07DX003 (ip), vehicle: suspension in saline) is 96 % of control and 103 % of control; the T/C (dose: 32.0 mg/kg/injection, schedule: Q07DX003 (ip), vehicle: suspension in saline) is 95 % of control and 106 % of control; the T/C (dose: 64.0 mg/kg/injection, schedule: Q07DX003 (ip), vehicle: suspension in saline) was 53 % of control; the T/C (dose: 128.0 mg/kg/injection, schedule: Q07DX003 (ip), vehicle: suspension in saline) is 79 % of control.
Turning to `CCCC(=O)OCc1cc(=O)n(C)c2c3c4c(cc12)c(C)cc(=O)n4CO3`, the T/C reads like this: (dose: 6.25 mg/kg/injection, schedule: Q07DX002 (ip), vehicle: Klucel (hydroxypropylcellulose) (HPC)) 99 % of control; under setting [1], 96 % of control; under setting [3], 162 % of control; under setting [8], 150 % of control; (dose: 100.0 mg/kg/injection, schedule: Q07DX002 (ip), vehicle: Klucel (hydroxypropylcellulose) (HPC)) 64 % of control.
Take `COC1=C2C[C@@H](C)C[C@@H](OC)[C@@H](O)[C@H](C)/C=C(\C)[C@@H](OC(N)=O)[C@H](OC)/C=C\C=C(/C)C(=O)NC(=CC1=O)C2=O`: the T/C is 92 % of control and 100 % of control (dose: 0.25 mg/kg/injection, schedule: Q07DX002 (ip), vehicle: saline with Tween-80); 86 % of control (dose: 0.5 mg/kg/injection, schedule: Q07DX002 (ip), vehicle: saline with Tween-80); 108 % of control (dose: 1.0 mg/kg/injection, schedule: Q07DX002 (ip), vehicle: saline with Tween-80); 94 % of control (dose: 2.0 mg/kg/injection, schedule: Q07DX002 (ip), vehicle: saline with Tween-80); 98 % of control (dose: 4.0 mg/kg/injection, schedule: Q07DX002 (ip), vehicle: saline with Tween-80); 92 % of control and 94 % of control (dose: 8.0 mg/kg/injection, schedule: Q07DX002 (ip), vehicle: saline with Tween-80).
As for `COc1ccc(C(N)=O)cc1N=NN(C)C`, the T/C was 97 % of control (dose: 6.25 mg/kg/injection, schedule: Q07DX003 (ip), vehicle: Klucel (hydroxypropylcellulose) (HPC)); 111 % of control (dose: 12.5 mg/kg/injection, schedule: Q07DX003 (ip), vehicle: Klucel (hydroxypropylcellulose) (HPC)); 89 % of control (dose: 25.0 mg/kg/injection, schedule: Q07DX003 (ip), vehicle: Klucel (hydroxypropylcellulose) (HPC)); 66 % of control (dose: 50.0 mg/kg/injection, schedule: Q07DX003 (ip), vehicle: Klucel (hydroxypropylcellulose) (HPC)); 15 % of control (dose: 100.0 mg/kg/injection, schedule: Q07DX003 (ip), vehicle: Klucel (hydroxypropylcellulose) (HPC)).
With `C1OC1CO[C@@H]1CO[C@H]2[C@@H]1OC[C@H]2OCC1CO1` (some centres not stated), the T/C is, setting by setting: under setting [2], 47 % of control; (dose: 25.0 mg/kg/injection, schedule: Q07DX002 (ip), vehicle: suspension in saline) 116 % of control; under setting [4], 82 % of control; (dose: 50.0 mg/kg/injection, schedule: Q07DX002 (ip), vehicle: suspension in saline) 117 % of control; (dose: 50.0 mg/kg/injection, schedule: Q07DX003 (ip), vehicle: saline) 83 % of control; (dose: 100.0 mg/kg/injection, schedule: Q07DX002 (ip), vehicle: suspension in saline) 79 % of control. For the same compound, the T/C reads like this: (dose: 200.0 mg/kg/injection, schedule: Q07DX002 (ip), vehicle: suspension in saline) 98 % of control; (dose: 200.0 mg/kg/injection, schedule: Q07DX003 (ip), vehicle: saline) 79 % of control and 94 % of control; (dose: 400.0 mg/kg/injection, schedule: Q07DX002 (ip), vehicle: suspension in saline) 70 % of control.
As to `C[C@@H]1C(=O)C[C@H]2C(C)(C)CCC[C@]2(C)[C@@]1(O)CCc1ccoc1`, the T/C under setting [8] is 74 % of control; the T/C (dose: 200.0 mg/kg/injection, schedule: Q07DX002 (ip), vehicle: Klucel (hydroxypropylcellulose) (HPC)) is 84 % of control; the T/C (dose: 400.0 mg/kg/injection, schedule: Q07DX002 (ip), vehicle: Klucel (hydroxypropylcellulose) (HPC)) was 67 % of control.
Take `NC1CCCCC1N.O=C1C=CC(=C(c2ccc(O)cc2)c2ccccc2S(=O)(=O)[O-])C=C1.O=[N+]([O-])[O-].[Pt+4]`: the T/C (dose: 1.56 mg/kg/injection, schedule: Q07DX002 (ip), vehicle: saline) was 14 % of control.
As for `Nc1ccn(C2CC(O)C(CO)O2)c(=O)n1` (configuration not stated), the T/C is 124 % of control (dose: 42.19 mg/kg/injection, schedule: Q07DX002 (ip), vehicle: water); 79 % of control (dose: 84.38 mg/kg/injection, schedule: Q07DX002 (ip), vehicle: water); 110 % of control (dose: 337.5 mg/kg/injection, schedule: Q07DX002 (ip), vehicle: water).
Regarding `COc1cccc(-c2cc(=O)c3cccc(CC(=O)O)c3o2)c1`, the T/C is 88 % of control under setting [5]; 97 % of control (dose: 25.0 mg/kg/injection, schedule: Q07DX002 (ip), vehicle: saline); 110 % of control under setting [6]; 33 % of control under setting [7].
